Where two headings read alike, the source gives them in different places.
How the values were obtained:
[1] = tested on: apomorphine-induced agitation and stereotypic chewing; experiment: combined test in rats: apomorphine (APO); assay type: in vivo, rat (adult male Wistar rats); details: Rattus norvegicus, sc, 0.5 h, read-out: ED50 (APO)--rat
Protocol: (§1) The activity of the subject compounds as […] is evidenced by the experimental data obtained in at least one of two different test procedures, viz., the combined apomorphine-, tryptamine- and norepinephrine tests in rats and the apomorphine test in dogs.
(§2) The combined apomorphine (APO)-, tryptamine (TRY)- and norepinephrine (NOR) test in rats.
(§3) The experimental animals used in this test were adult male Wistar rats (weight 240±10 g). After an overnight fast, the animals were treated subcutaneously (1 ml/100 g) with an aqueous solution of the compound under investigation (time=zero) and put in isolated observation cages. Thirty minutes thereafter (time=30 minutes) 1.25 mg/kg of apomorphine hydrochloride (APO) was injected intravenously and the rats were observed over a 1 hour period for the presence or absence of the following apomorphine-induced phenomena; agitation and stereotypic chewing. At the end of this 1 hour period (time=90 minutes) the same animals were injected intravenously with 40 mg/kg of tryptamine (TRY) and the presence of the typical tryptamine-induced bilateral tonic seizures was noted. Two hours after pretreatment (time=120 minutes) finally, the same animals were challenged with 1.25 mg/kg intravenously of norephinephrine (NOR) and possible mortality was looked for up to 60 minutes later.
(§4) The table 1 gives the ED50 -value of a number of the compounds under consideration. As used herein, the ED50 -value represents the dose which protects 50% of the animals from apomorphine-, tryptamine- or norepinephrine-induced phenomena.

[2] = tested on: norepinephrine-induced mortality; experiment: combined test in rats: norepinephrine (NOR); assay type: in vivo, rat (adult male Wistar rats); details: Rattus norvegicus, sc, 2 h; norepinephrine 1.25 mg/kg i.v. at 120 minutes; dose protecting 50% of animals
Protocol: as §1, §2, §3, §4

[3] = tested on: apomorphine-induced emesis; experiment: apomorphine test in dogs (APO-dog); assay type: in vivo, beagle dog; details: Canis lupus familiaris, sc, read-out: ED50 (APO)--dog
Text: as §1
The apomorphine test in dogs (APO-dog).
The method used is described by P. A. J. Janssen and C. J. E. Niemegeers in Arzneim.-Forsch. (Drug Res.), 9, 765-767 (1959). […]
The table 1 gives the ED50 -values of a number of the compounds under consideration. As used herein, the ED50 value represents the dose which protects 50% of the animals from emesis.

[4] = tested on: tryptamine-induced bilateral tonic seizures; experiment: combined test in rats: tryptamine (TRY); assay type: in vivo, rat (adult male Wistar rats); details: Rattus norvegicus, sc, 1.5 h, read-out: ED50 (TRY)--rat
Protocol: as §1, §2, §3, §4

[5] = s.c., apomorphine 1.25 mg/kg i.v. 30 minutes after treatment, dose protecting 50% of animals
[6] = duration 1 h, apomorphine 0.31 mg/kg s.c., dose protecting 50% from emesis
[7] = duration 4 h, apomorphine 0.31 mg/kg s.c., dose protecting 50% from emesis
[8] = s.c., tryptamine 40 mg/kg i.v. at 90 minutes, dose protecting 50% of animals

Cc1nc2n(c(=O)c1CCN1CCC(c3noc4cc(F)ccc34)CC1)CCCC2 [Compound 1, 3-[2-[4-(6-fluoro-1,2-benzisoxazol-3-yl)-1-piperidinyl]ethyl]-6,7,8,9-tetrahydro-2-methyl-4H-pyrido[1,2-a]pyrimidin-4-one]
ED50 [1]: 0.08 mg/kg
ED50 [2]: 0.16 mg/kg
ED50 ([3]; 1 h): 0.008 mg/kg
ED50 ([3]; 2 h): 0.005 mg/kg
ED50 ([3]; 4 h): 0.015 mg/kg
ED50 ([3]; 8 h): 0.018 mg/kg
ED50 ([3]; 16 h): 0.02 mg/kg
ED50 [4]: 0.08 mg/kg

Cc1nc2sccn2c(=O)c1CCN1CCC(c2noc3cc(F)ccc23)CC1 [Compound 2, 6-[2-[4-(6-fluoro-1,2-benzisoxazol-3-yl)-1-piperidinyl]ethyl]-7-methyl-5H-thiazolo[3,2-a]pyrimidin-5-one]
ED50 [1, 5]: 0.02 mg/kg
ED50 [2]: 0.31 mg/kg
ED50 [3, 6]: 0.004 mg/kg
ED50 [3, 7]: 0.008 mg/kg
ED50 ([3]; duration 16 h, apomorphine 0.31 mg/kg s.c., dose protecting 50% from emesis): 0.16 mg/kg
ED50 [4, 8]: 0.005 mg/kg

Cc1nc2ccccn2c(=O)c1CCN1CCC(c2noc3cc(F)ccc23)CC1 [Compound 11, 3-[2-[4-(6-fluoro-1,2-benzisoxazol-3-yl)-1-piperidinyl]ethyl]-2-methyl-4H-pyrido[1,2-a]pyrimidin-4-one]
ED50 [1, 5]: 0.02 mg/kg
ED50 [2]: 0.16 mg/kg
ED50 [3, 6]: 0.015 mg/kg
ED50 [3, 7]: 0.03 mg/kg
ED50 [4, 8]: 0.01 mg/kg

Cc1nc2scc(C)n2c(=O)c1CCN1CCC(c2noc3cc(F)ccc23)CC1 [Compound 13, 6-[2-[4-(6-fluoro-1,2-benzisoxazol-3-yl)-1-piperidinyl]ethyl]-3,7-dimethyl-5H-thiazolo[3,2-a]pyrimidin-5-one]
ED50 [1, 5]: 0.02 mg/kg
ED50 [2]: 0.08 mg/kg
ED50 [3, 6]: 0.015 mg/kg
ED50 [3, 7]: 0.06 mg/kg
ED50 [4, 8]: 0.02 mg/kg

Cc1nc2n(c(=O)c1CCN1CCC(c3noc4cc(F)ccc34)CC1)CCS2 [Compound 14, 6-[2-[4-(6-fluoro-1,2-benzisoxazol-3-yl)-1-piperidinyl]ethyl]-2,3-dihydro-7-methyl-5H-thiazolo[3,2-a]pyrimidin-5-one]
ED50 [1, 5]: 0.02 mg/kg
ED50 [2]: 0.31 mg/kg
ED50 [3, 6]: 0.004 mg/kg
ED50 [3, 7]: 0.004 mg/kg
ED50 [4, 8]: 0.005 mg/kg

Cc1nc2n(c(=O)c1CCN1CCC(c3noc4cc(F)ccc34)CC1)CCCS2 [Compound 15, 7-[2-[4-(6-fluoro-1,2-benzisoxazol-3-yl)-1-piperidinyl]ethyl]-3,4-dihydro-8-methyl-2H,6H-pyrimido[2,1-b][1,3]thiazin-6-one]
ED50 [1, 5]: 0.08 mg/kg
ED50 [2]: 0.31 mg/kg
ED50 [3, 6]: 0.015 mg/kg
ED50 [3, 7]: 0.06 mg/kg
ED50 [4, 8]: 0.01 mg/kg
